Assay results as given in the NIST ThermoML archive (doi:10.1016/j.tca.2015.03.016).
Values joined by “and” are separate entries in the source; they are usually repeats but may differ in a detail not shown here. Equal values may be shown once.

Conditions: Liquid, Transpiration method

NC1CCCCC1 [cyclohexylamine]
Conditions	vapor or sublimation pressure [kPa]
283.2 K	0.4635
286.2 K	0.5583
290.1 K	0.7237
293.3 K	0.9124
296.2 K	1.06
298.1 K	1.182
299.3 K	1.28
302.3 K	1.541
305.3 K	1.788
308.3 K	2.115

CNC1CCCCC1 [N-methylcyclohexylamine]
Conditions	vapor or sublimation pressure [kPa]
275.2 K	0.1412
278.2 K	0.1788
281.2 K	0.2211
284.2 K	0.2727
287.2 K	0.3362
290.4 K	0.4224
293.2 K	0.4889
296.2 K	0.606
299.2 K	0.7392
302.2 K	0.8882
305.2 K	1.044
308.3 K	1.278
311.2 K	1.51
314.2 K	1.784

CN(C)C1CCCCC1 [N,N-dimethylcyclohexylamine]
Conditions	vapor or sublimation pressure
275.3 K	0.0902 kPa and 0.0943 kPa
275.4 K	0.0923 kPa
278.3 K	0.1123 kPa
281.2 K	0.1456 kPa
284.2 K	0.1766 kPa
287.2 K	0.2125 kPa
290.3 K	0.2601 kPa
293.2 K	0.3186 kPa
296.2 K	0.383 kPa
299.2 K	0.472 kPa
302.2 K	0.5659 kPa
305.3 K	0.6634 kPa
308.3 K	0.8071 kPa
311.2 K	0.912 kPa
314.3 K	1.106 kPa

C1CCC(NC2CCCCC2)CC1 [N-cyclohexylcyclohexanamine]
Conditions	vapor or sublimation pressure [kPa]
295.4 K	0.00322
298.3 K	0.00416
301.2 K	0.0055
304.2 K	0.00706
307.2 K	0.00889
310.2 K	0.01123
313.2 K	0.01433
315.1 K	0.0165
318.3 K	0.02093
321.2 K	0.02576
324.2 K	0.03192
327.2 K	0.03941
330.2 K	0.0492
333.2 K	0.05903
